According to patent publication US9113629B2, “4-amino-6-(4-substituted-phenyl)-picolinates and 6-amino-2-(4-substituted-phenyl)-pyrimidine-4-carboxylates and their use as herbicides” (DOW AGROSCIENCES LLC, priority 2013, dated 2015):
Where two headings read alike, the source gives them in different places.

Assays:
[1] = test system: Key Grass and Sedge Weeds as well as Grass Crops; assay: Post-emergent Test II herbicidal activity (Table 6); assay type: in vivo; details: post-emergence, 336 h; for pest or weed control at 70 g/ha: application rate 70 g ai/ha; for pest or weed control at 140 g/ha: application rate 140 g ai/ha
In short: (§1)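 Injury was rated visually 14 d after treatment on a 0–100% scale against untreated controls. Test compounds, formulated with crop oil concentrate and surfactant and serially diluted down to 1/16× of the top rate, were applied by track sprayer at 187 L/ha onto first- to second-true-leaf seedlings.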

[2] = test system: Key Broadleaf Weed and Crop Species; assay: Post-emergent Test II herbicidal activity (Table 5); assay type: in vivo; details: post-emergence, 336 h, post-emergent, 14 days after application; for pest or weed control at 70 g/ha: 70 g ai/ha; for pest or weed control at 140 g/ha: 140 g ai/ha
In short: as §1

[3] = Triticum aestivum, TRZSS (wheat), read-out: Visual Growth Reduction (%) 14 Days After Application, TRZSS
[4] = CYPES: yellow nutsedge (Cyperus esculentus), read-out: Visual Growth Reduction (%) 14 Days After Application, CYPES
[5] = DIGSA: crabgrass (Digitaria sanguinalis), read-out: Visual Growth Reduction (%) 14 Days After Application, DIGSA
[6] = ECHCG: barnyardgrass (Echinochloa crus-galli), read-out: Visual Growth Reduction (%) 14 Days After Application, ECHCG
[7] = ORYSA: rice (Oryza sativa), read-out: Visual Growth Reduction (%) 14 Days After Application, ORYSA
[8] = SETFA: giant foxtail (Setaria faberi), read-out: Visual Growth Reduction (%) 14 Days After Application, SETFA
[9] = SORVU: grain sorghum (Sorghum vulgare), read-out: Visual Growth Reduction (%) 14 Days After Application, SORVU
[10] = ZEAMX: maize, corn (Zea mays), read-out: Visual Growth Reduction (%) 14 Days After Application, ZEAMX
[11] = ABUTH: velvetleaf (Abutilon theophrasti), read-out: Visual Growth Reduction (%) 14 Days After Application ABUTH
[12] = AMARE: redroot pigweed (Amaranthus retroflexus), read-out: Visual Growth Reduction (%) 14 Days After Application AMARE
[13] = BRSNN: oilseed-rape, canola (Brassica napus), read-out: Visual Growth Reduction (%) 14 Days After Application BRSNN
[14] = CHEAL: lambsquarters (Chenopodium album), read-out: Visual Growth Reduction (%) 14 Days After Application CHEAL
[15] = EPHHL: wild poinsettia (Euphorbia heterophylla), read-out: Visual Growth Reduction (%) 14 Days After Application EPHHL
[16] = HELAN: sunflower (Helianthus annuus), read-out: Visual Growth Reduction (%) 14 Days After Application HELAN
[17] = VIOTR: wild pansy (Viola tricolor), read-out: Visual Growth Reduction (%) 14 Days After Application VIOTR

| SMILES | pest or weed control at 70 g/ha [1, 3] [%] | pest or weed control at 140 g/ha [1, 3] [%] | pest or weed control at 70 g/ha [1, 4] [%] | pest or weed control at 140 g/ha [1, 4] [%] | pest or weed control at 70 g/ha [1, 5] [%] | pest or weed control at 140 g/ha [1, 5] [%] | pest or weed control at 70 g/ha [1, 6] [%] | pest or weed control at 140 g/ha [1, 6] [%] | pest or weed control at 70 g/ha [1, 7] [%] | pest or weed control at 140 g/ha [1, 7] [%] | pest or weed control at 70 g/ha [1, 8] [%] | pest or weed control at 140 g/ha [1, 8] [%] | pest or weed control at 70 g/ha [1, 9] [%] | pest or weed control at 140 g/ha [1, 9] [%] | pest or weed control at 70 g/ha [1, 10] [%] | pest or weed control at 140 g/ha [1, 10] [%] | pest or weed control at 70 g/ha [2, 11] [%] | pest or weed control at 140 g/ha [2, 11] [%] | pest or weed control at 70 g/ha [2, 12] [%] | pest or weed control at 140 g/ha [2, 12] [%] | also measured |
| --- | --- | --- | --- | --- | --- | --- | --- | --- | --- | --- | --- | --- | --- | --- | --- | --- | --- | --- | --- | --- | --- |
| C#Cc1ccc(-c2nc(C(=O)O)c(C=C)c(N)c2F)cc1 [Compound 36] | 45 to 59 | 45 to 59 | 0 to 29 | 95 to 100 | 0 to 29 | 0 to 29 | 60 to 74 | 75 to 84 | 0 to 29 | 0 to 29 | 0 to 29 | 0 to 29 | 60 to 74 | 60 to 74 | 30 to 44 | 45 to 59 | 0 to 29 | 0 to 29 | 95 to 100 | 95 to 100 | pest or weed control at 70 g/ha [2, 13]: 0 to 29%; pest or weed control at 140 g/ha [2, 13]: 0 to 29%; pest or weed control at 70 g/ha [2, 14]: 85 to 94%; pest or weed control at 140 g/ha [2, 14]: 85 to 94%; pest or weed control at 70 g/ha [2, 15]: 95 to 100%; pest or weed control at 140 g/ha [2, 15]: 95 to 100%; pest or weed control at 70 g/ha [2, 16]: 85 to 94%; pest or weed control at 140 g/ha [2, 16]: 85 to 94%; pest or weed control at 70 g/ha [2, 17]: 0 to 29%; pest or weed control at 140 g/ha [2, 17]: 0 to 29% |
| COc1c(N)nc(-c2ccc(I)c(F)c2)nc1C(=O)O [Compound 37, 6-Amino-2-(3-fluoro-4-iodophenyl)-5-methoxypyrimidine-4-carboxylic acid] | 45 to 59 | 60 to 74 | 0 to 29 | 0 to 29 | 45 to 59 | 60 to 74 | 75 to 84 | 75 to 84 | 0 to 29 | 0 to 29 | 0 to 29 | 60 to 74 | 75 to 84 | 85 to 94 | 0 to 29 | 45 to 59 | 45 to 59 | 60 to 74 | 85 to 94 | 85 to 94 | pest or weed control at 70 g/ha [2, 13]: 95 to 100%; pest or weed control at 140 g/ha [2, 13]: 95 to 100%; pest or weed control at 70 g/ha [2, 14]: 95 to 100%; pest or weed control at 140 g/ha [2, 14]: 95 to 100%; pest or weed control at 70 g/ha [2, 15]: 95 to 100%; pest or weed control at 140 g/ha [2, 15]: 95 to 100%; pest or weed control at 70 g/ha [2, 16]: 85 to 94%; pest or weed control at 140 g/ha [2, 16]: 85 to 94%; pest or weed control at 70 g/ha [2, 17]: 95 to 100%; pest or weed control at 140 g/ha [2, 17]: 95 to 100% |
